# Laboratory results as given in patent US20020016981A1, “Methods for producing genetically modified plants, plant materials and plant products produced thereby” (priority 1998, published 2002).
# Experiments:
# Format in all cases: cell-based
# [1] = test system: Eucalyptus nodal sections; assay: Acetosyringone in the co-cultivation medium, GUS staining of explants (Example 8)
# Experimental: The inclusion of a phenolic compound, acetosyringone, in the co-cultivation medium was tested. Eucalyptus nodal sections were infected with Agrobacterium containing the double 35S-GUS construct, as described in Example 5, and then allowed to co-cultivate on MS+0.4% glucose medium containing acetosyringone, as described in Example 5. Following co-cultivation, explants were placed onto bud induction/selection medium for subsequent growth. Explants were stained for GUS activity as in Example 5 at 4-5 weeks post-infection.
# [2] = test system: stem segments from in vitro micropropagated shoot cultures of E. grandis x nitens clone 910.59; assay: Adventitious bud induction from stem segments of different age at different BA concentrations (Example 1); settings: NAA 0.01 mg/l, after 5 weeks in culture
# From the text: (§1) The following examples are offered by way of illustration and not by way of limitation. Examples 1 to 3 describe experiments involving optimization of the regeneration and transformation protocols for Eucalyptus transformation. All refer to adventitious bud induction from stem segments obtained from in vitro micropropagated shoot cultures of E. grandis x nitens clone 910.59 (Fletcher Challenge Forests, Ltd., New Zealand). The tissue culture conditions in all examples, unless otherwise noted, were: temperature 20° C., 16 hour photoperiod, and cool white fluorescent lighting. These tissue culture conditions are generally preferred. All cultures were placed in 20×100 mm Petri dishes, 10 stem segments per dish.
# This experiment was designed to determine the best age of stem segments for adventitious bud induction. The basal medium used was full-strength Murashige and Skoog (MS) medium (Sigma M5519) and sucrose 30 g/l. The age of stem segments (apical, 1st, 2nd, 3rd and 4th nodes) were tested in combination with the concentrations of Benzylaminopurine (BA-1, 2 and 3 mg/l). All media contained Naphthalene acetic acid (NAA) at 0.01 mg/l.
# In vitro shoots of 3-4 cm were cut into single node segments. The leaves were removed prior to culture. Approximately twenty explants were cultured for each treatment. Cultures were transferred to fresh media every 3 weeks. Adventitious bud development assessments were done after 5 weeks in culture. The percentages of explants forming adventitious shoots for each treatment are listed below.
# [3] = test system: stem segments from in vitro micropropagated shoot cultures of E. grandis x nitens clone 910.59; assay: Kanamycin inhibition of adventitious bud formation on stem segments (Example 2); settings: after 5 weeks in culture
# From the text: as §1
# This experiment was designed to determine the optimal concentration of kanamycin to be used for selection of transformed bud tissues. Explants were cultured as described at the end of Example 1, in combination with kanamycin levels of 0, 5, 10, 25, 50 or 100 mg/l. In vitro shoots of 3-4 cm in size were cut into single node segments, and the appropriate segments used. All leaves were removed prior to culture. Approximately thirty explants were used for each treatment. Cultures were transferred to fresh medium after 3 weeks in culture, and the percentage of bud inhibition determined after 5 weeks in culture.
compound,measurement,setting,value
"COc1cc(C(C)=O)cc(OC)c1O [Acetosyringone, acetosyringone]",% of Total GUS-Positive Explants in Buds,"[1]; 5 μM acetosyringone in MS+0.4% glucose co-cultivation medium, GUS staining 4-5 weeks post-infection",8%
same,effect on transformation efficiency,[1]; 5 μM acetosyringone in the co-cultivation medium,enhances transformation efficiency
"c1ccc(CNc2ncnc3[nH]cnc23)cc1 [BA, Benzylaminopurine]",percentages of explants forming adventitious shoots,"[2]; Apical Shoot Tips, BA 1 mg/l",25% (5/20)
same,percentages of explants forming adventitious shoots,"[2]; Apical Shoot Tips, BA 2 mg/l",5% (1/20)
same,percentages of explants forming adventitious shoots,"[2]; Apical Shoot Tips, BA 3 mg/l",33% (7/20)
same,percentages of explants forming adventitious shoots,"[2]; First Node, BA 1 mg/l",57% (12/21)
same,percentages of explants forming adventitious shoots,"[2]; First Node, BA 2 mg/l",35% (7/20)
same,percentages of explants forming adventitious shoots,"[2]; First Node, BA 3 mg/l",20% (4/20)
same,percentages of explants forming adventitious shoots,"[2]; Fourth Node, BA 1 mg/l",45% (9/20)
same,percentages of explants forming adventitious shoots,"[2]; Fourth Node, BA 2 mg/l",38% (8/21)
same,percentages of explants forming adventitious shoots,"[2]; Fourth Node, BA 3 mg/l",10% (2/20)
same,percentages of explants forming adventitious shoots,"[2]; Second Node, BA 1 mg/l",76% (16/21)
same,percentages of explants forming adventitious shoots,"[2]; Second Node, BA 2 mg/l",12% (6/20)
same,percentages of explants forming adventitious shoots,"[2]; Second Node, BA 3 mg/l",20% (4/20)
same,percentages of explants forming adventitious shoots,"[2]; Third Node, BA 1 mg/l",75% (15/20)
same,percentages of explants forming adventitious shoots,"[2]; Third Node, BA 2 mg/l",15% (3/20)
same,percentages of explants forming adventitious shoots,"[2]; Third Node, BA 3 mg/l",15% (3/20)
"NC[C@H]1O[C@H](O[C@H]2[C@H](O)[C@@H](O[C@H]3O[C@H](CO)[C@@H](O)[C@H](N)[C@H]3O)[C@H](N)C[C@@H]2N)[C@H](O)[C@@H](O)[C@@H]1O [Kanamycin, kanamycin]",inhibition at 5 µg/mL,"[3]; 840 h, kanamycin 5 mg/l, read-out: % Bud Inhibition Relative To Control",20%
same,inhibition at 10 µg/mL,"[3]; 840 h, kanamycin 10 mg/l, read-out: % Bud Inhibition Relative To Control",41%
same,inhibition at 25 µg/mL,"[3]; 840 h, kanamycin 25 mg/l, read-out: % Bud Inhibition Relative To Control",59%
same,inhibition at 50 µg/mL,"[3]; 840 h, kanamycin 50 mg/l, read-out: % Bud Inhibition Relative To Control",81%
same,inhibition at 100 µg/mL,"[3]; 840 h, kanamycin 100 mg/l, read-out: % Bud Inhibition Relative To Control",96%
same,% of Stem Segments Forming Adventitious Buds,[3]; kanamycin 5 mg/l,64% (18/28)
same,% of Stem Segments Forming Adventitious Buds,[3]; kanamycin 10 mg/l,47% (14/30)
same,% of Stem Segments Forming Adventitious Buds,[3]; kanamycin 25 mg/l,33% (10/30)
same,% of Stem Segments Forming Adventitious Buds,[3]; kanamycin 50 mg/l,15% (14/31)
same,% of Stem Segments Forming Adventitious Buds,[3]; kanamycin 100 mg/l,3% (1/30)
